# Test results published in ChEMBL document CHEMBL3727365, “Compounds that modulate intracellular calcium” (2012).
# Biological target: ORAI1/STIM1 (Homo sapiens) (UniProt Q96D31+Q13586)
# Assay: Inhibition of recombinant human STIM1/Orai1 expressed in HEK293 cells assessed as inhibition of peak basal signal after 30 mins by fluo4-AM dye-based FLIPR assay
# Assay type: cell-based
# Chain of ORAI1/STIM1 (Homo sapiens) (Q13586 23-685 partner limits assumed): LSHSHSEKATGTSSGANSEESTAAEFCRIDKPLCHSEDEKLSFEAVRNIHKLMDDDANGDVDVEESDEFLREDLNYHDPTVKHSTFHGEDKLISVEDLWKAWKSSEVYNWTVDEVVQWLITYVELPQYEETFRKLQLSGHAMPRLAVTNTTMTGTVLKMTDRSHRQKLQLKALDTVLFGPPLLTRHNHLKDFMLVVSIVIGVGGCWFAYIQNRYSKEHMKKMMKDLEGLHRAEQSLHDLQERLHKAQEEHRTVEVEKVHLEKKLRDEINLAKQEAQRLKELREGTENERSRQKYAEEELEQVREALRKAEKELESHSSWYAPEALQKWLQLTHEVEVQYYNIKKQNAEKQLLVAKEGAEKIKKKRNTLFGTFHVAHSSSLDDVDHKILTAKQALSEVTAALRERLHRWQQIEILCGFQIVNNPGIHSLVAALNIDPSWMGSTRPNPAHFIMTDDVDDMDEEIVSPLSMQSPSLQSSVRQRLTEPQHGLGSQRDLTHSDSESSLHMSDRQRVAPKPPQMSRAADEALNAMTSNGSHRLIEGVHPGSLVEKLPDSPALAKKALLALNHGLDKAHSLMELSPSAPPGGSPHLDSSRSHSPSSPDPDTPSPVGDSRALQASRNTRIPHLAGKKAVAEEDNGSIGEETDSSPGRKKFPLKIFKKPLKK
# Chain of ORAI1/STIM1 (Homo sapiens) (Q96D31 whole entry): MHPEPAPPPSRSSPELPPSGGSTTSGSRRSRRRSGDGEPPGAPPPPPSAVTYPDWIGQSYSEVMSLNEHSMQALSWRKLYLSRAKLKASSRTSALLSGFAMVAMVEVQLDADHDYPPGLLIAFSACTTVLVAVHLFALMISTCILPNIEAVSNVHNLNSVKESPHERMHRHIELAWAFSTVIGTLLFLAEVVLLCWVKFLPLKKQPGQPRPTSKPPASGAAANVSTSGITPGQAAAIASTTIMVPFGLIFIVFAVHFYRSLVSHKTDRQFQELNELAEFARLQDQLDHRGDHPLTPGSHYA
row,Efficacy [%],Compound
1,< 50,Cc1ccccc1C(=O)Nc1ncc(-c2cc(C(F)(F)F)nn2C)s1
2,< 50,Cn1nc(C(F)(F)F)cc1-c1ccc(NC(=O)c2ccncc2F)s1

# Test system: Jurkat
# Assay: Inhibition of PHA/TPA-induced IL2 release in human Jurkat T cells preincubated for 10 mins followed by PHA/TPA stimulation measured after […] by ELISA
# Assay type: functional, cell-based
row,IC50 [nM],Compound
1,< 50,Cn1nc(-c2ccco2)cc1-c1ccc(C(=O)Nc2c(F)cncc2F)s1
2,< 50,Cn1nc(-c2ccccc2F)cc1-c1ccc(C(=O)Nc2ncc(Cl)cc2F)s1
3,< 50,Cn1nc(-c2ccccc2F)cc1-c1ccc(C(=O)Nc2ccncc2F)s1
4,< 50,Cn1nc(-c2nccs2)cc1-c1ccc(C(=O)Nc2ncc(Cl)cc2F)s1
5,< 50,Cn1nc(-c2ccco2)cc1-c1ccc(C(=O)Nc2ccncc2F)s1
6,50,Cn1nc(-c2ccccc2F)cc1-c1ccc(C(=O)Nc2ncccc2F)s1
7,> 100,Cn1nc(-c2ccco2)cc1-c1ccc(C(=O)Nc2ncccc2F)s1
8,50,Cn1nc(-c2ccco2)cc1-c1ccc(C(=O)Nc2ccccc2Cl)s1
9,50,Cn1nc(-c2ccccc2)cc1-c1ccc(C(=O)Nc2ccncc2F)s1
10,< 50,Cn1nc(-c2nccs2)cc1-c1ccc(C(=O)Nc2ccncc2F)s1
11,< 50,Cn1nc(-c2ccco2)cc1-c1ccc(C(=O)Nc2ncc(Cl)cc2F)s1
12,< 50,Cn1nc(-c2ccccc2F)cc1-c1ccc(C(=O)Nc2c(F)cncc2F)s1
13,> 100,Cn1nc(-c2ccccc2)cc1-c1ccc(C(=O)Nc2ccccc2F)s1
14,50,Cc1nc2cc(Cl)c(-c3cnc(NC(=O)c4ccccc4Cl)s3)cc2o1
15,< 50,Cn1nc(C(F)(F)F)cc1-c1cnc(NC(=O)c2ccccc2F)s1
16,< 50,Cn1nc(-c2nccs2)cc1-c1ccc(C(=O)Nc2ccccc2F)s1
